Laboratory results published in patent US20210283099A1, “CDC7 KINASE INHIBITORS AND USES THEREOF” (SLOAN-KETTERING INSTITUTE FOR CANCER RESEARCH, priority 2010, published 2021).

Columns and labels:
Test in all cases: Cytotoxicity assay (Alamar blue)
Assay type in all cases: cell-based
[1] = system: RADO; conditions: Homo sapiens, Patient sample of primary refractory AML with multiple chromosomal abnormalities (−5, −7)
Method: (§1) FIGS. 16A-16B. Granaticin A and Granaticin B inhibit multiple tumor types: The indicated cell lines and primary patient samples were tested against the compounds listed in standard cytotoxicity assays (12 point dose response using Alamar blue reduction as an indicator of cell viability). Assays were done in triplicate and IC50 determinations were run in 12-point serial dilutions from […] to 5 nM. […] These include ras and EGFR gatekeeper mutation containing cell lines in addition to p53 mutant cell lines and other known chemotherapy resistant cell lines. Specifically, this included multi-drug resistance phenotype (MDR-overexpressing) cell lines from multiple hematologic and solid tumor cell lines. Table 1 highlights a series of primary patient leukemia samples-both acute and chronic and treatment naïve and refractory tested against granaticins A and B and Derivatives 1 and 2 (see Examples).

[2] = system: SOPA; conditions: Homo sapiens, Patient sample of secondary AML with chromsome 11q23 abnormality
Method: as §1

[3] = system: JNDSRCT1; conditions: Human desmoplastic small round cell tumor cell line
Method: as §1

[4] = system: SKOV3; conditions: SK-OV-3, Human adenocarcinoma from the ovary derived from ascites, hypodiploid
Method: as §1

[5] = system: RORI; conditions: Homo sapiens, Patient sample of relapsed/refractory AML with trisomy of chromosome #8
Method: as §1

[6] = system: PAPR; conditions: Homo sapiens, Patient sample of relapsed acute myelomonocytic leukemia
Method: as §1

[7] = system: SW1736; conditions: SW-1736, Human anaplastic thyroid carcinoma with BRAF V600E mutation
Method: as §1

[8] = system: MAWI B; conditions: Homo sapiens, Patient sample of secondary chronic myelogenous leukemia
Method: as §1

[9] = system: ALL3; conditions: Human Acute Lymphoblastic leukemia, Philadelphia chromosome positive
Method: as §1

[10] = system: H358; conditions: NCI-H358, Human lung adenocarcinoma, G13C KRAS mutation
Method: as §1

[11] = system: RH30; conditions: Human rhabdomyosarcoma, P53 mutation
Method: as §1

[12] = system: GLHU; conditions: Homo sapiens, Patient sample of Chronic Myelogenous leukemia
Method: as §1

[13] = system: H2030; conditions: NCI-H2030, human lung adenocarcinoma, wild-type EGFR, G12C KRAS mutation, G262V P53 mutation, PTEN null
Method: as §1

[14] = system: CWR22; conditions: human prostate carcinoma
Method: as §1

[15] = system: SKMEL28; conditions: SK-MEL-28, Human melanoma
Method: as §1

[16] = system: ALBU; conditions: Homo sapiens, Patient sample of essential thrombocythemia transformed to refractory acute myelogenous leukemia
Method: as §1

[17] = system: HCC827; conditions: human lung adenocarcinoma, DelE746-A750 EGFR mutation
Method: as §1

[18] = system: H1734; conditions: NCI-H1734, Human lung adenocarcinoma, G13C KRAS mutation
Method: as §1

[19] = system: H2444; conditions: NCI-H2444, human lung adenocarcinoma, G12V KRAS mutation
Method: as §1

[20] = system: KASUMI4; conditions: Kasumi-4, Human CML transformed to acute myeloid leukemia, overexpression of EVI1
Method: as §1

[21] = system: HPLD1; conditions: Immortalized human bronchiolar epithelial cell with SV-40 Large T antigen
Method: as §1

[22] = system: JAQU; conditions: Homo sapiens, Patient sample of relapsed/refractory pre-B cell acute lymphoblastic leukemia
Method: as §1

[23] = system: MCF-7; conditions: MCF7, human invasive breast ductal carcinoma, estrogen and progesterone receptor positive
Method: as §1

[24] = system: JOBL; conditions: Homo sapiens, Patient sample of relapsed/refractory acute myelogenous leukemia
Method: as §1

[25] = system: HL60; conditions: HL-60, Human Acute Promyelocytic leukemia
Method: as §1

[26] = system: MAWI; conditions: Homo sapiens, Patient sample of relpased/refractory AML with normal cytogenetics
Method: as §1

[27] = system: H460; conditions: NCI-H460, human large cell lung carcinoma, Q61H KRAS mutation
Method: as §1

[28] = system: OVCAR3; conditions: OVCAR-3, human ovarian adenocarcinoma
Method: as §1

[29] = system: H3255; conditions: NCI-H3255, Human lung adenocarcinoma, L858R EGFR mutation, wild-type KRAS, wild-type P53
Method: as §1

[30] = system: H23; conditions: NCI-H23, Human lung adenocarcinoma, G12c KRAS mutation, M246I P53 mutation
Method: as §1

[31] = system: RB355; conditions: Human retinoblastoma
Method: as §1

[32] = system: A2780; conditions: Human ovarian carcinoma
Method: as §1

[33] = system: H1650; conditions: NCI-H1650, Human lung adenocarcinoma, DelE746-A750 EGFR mutation, wild-type RAS, PTEN null
Method: as §1

[34] = system: PC9; conditions: PC-9, Human lung adenocarcinoma, DelE746-A750 EGFR mutation
Method: as §1

Q: Which IC50 [1] does the source give for `CC1OC2CC(O)C1(O)c1c(O)c3c(c(O)c12)C(=O)C1=C(C3=O)[C@H](C)O[C@H]2CC(=O)O[C@@H]12` (some centres unmarked) [Granaticin A, granaticin A] here?
A: 60 nM

Q: And the IC50 [2]?
A: 100 nM

Q: And the IC50 [3]?
A: 70 nM

Q: And the IC50 [4]?
A: 120 nM

Q: What about the IC50 [5] of the same compound?
A: 1200 nM

Q: What about the IC50 [6] of the same compound?
A: 990 nM

Q: And the IC50 [7]?
A: 160 nM

Q: And the IC50 [8]?
A: 420 nM

Q: And the IC50 [9]?
A: 140 nM

Q: What about the IC50 [10] of the same compound?
A: 210 nM

Q: What about the IC50 [11] of the same compound?
A: 130 nM

Q: And the IC50 [12]?
A: 260 nM

Q: And the IC50 [13]?
A: 490 nM

Q: What about the IC50 [14] of the same compound?
A: 90 nM

Q: What about the IC50 [15] of the same compound?
A: 540 nM

Q: What about the IC50 [16] of the same compound?
A: 430 nM

Q: And the IC50 [17]?
A: 280 nM

Q: What about the IC50 [18] of the same compound?
A: 240 nM

Q: What about the IC50 [19] of the same compound?
A: 310 nM

Q: What about the IC50 [20] of the same compound?
A: 300 nM

Q: And the IC50 [21]?
A: 180 nM

Q: And the IC50 [22]?
A: 50 nM

Q: What about the IC50 [23] of the same compound?
A: 170 nM

Q: And the IC50 [24]?
A: 560 nM

Q: And the IC50 [25]?
A: 140 nM

Q: What about the IC50 [26] of the same compound?
A: 720 nM

Q: What about the IC50 [27] of the same compound?
A: 390 nM

Q: And the IC50 [28]?
A: 210 nM

Q: What about the IC50 [29] of the same compound?
A: 210 nM

Q: What about the IC50 [30] of the same compound?
A: 120 nM

Q: And the IC50 [31]?
A: 90 nM

Q: What about the IC50 [32] of the same compound?
A: 120 nM

Q: And the IC50 [33]?
A: 290 nM

Q: And the IC50 [34]?
A: 300 nM

Q: How did the IC50 [1] turn out when `CC1OC2CC(O[C@H]3CC[C@H](O)[C@H](C)O3)C1(O)c1c(O)c3c(c(O)c12)C(=O)C1=C(C3=O)[C@H](C)O[C@H]2CC(=O)O[C@@H]12` (some centres unmarked) [Granaticin B, granaticin B] was run?
A: 30 nM

Q: What about the IC50 [2] of the same compound?
A: 90 nM

Q: What about the IC50 [3] of the same compound?
A: 50 nM

Q: What about the IC50 [4] of the same compound?
A: 40 nM

Q: What about the IC50 [5] of the same compound?
A: 100 nM

Q: What about the IC50 [6] of the same compound?
A: 490 nM

Q: And the IC50 [7]?
A: 20 nM

Q: What about the IC50 [8] of the same compound?
A: 160 nM

Q: What about the IC50 [9] of the same compound?
A: 30 nM

Q: And the IC50 [10]?
A: 50 nM

Q: What about the IC50 [11] of the same compound?
A: 80 nM

Q: What about the IC50 [12] of the same compound?
A: 80 nM

Q: And the IC50 [13]?
A: 220 nM

Q: And the IC50 [14]?
A: 40 nM

Q: And the IC50 [15]?
A: 340 nM

Q: And the IC50 [16]?
A: 30 nM

Q: And the IC50 [17]?
A: 120 nM

Q: What about the IC50 [18] of the same compound?
A: 40 nM

Q: What about the IC50 [19] of the same compound?
A: 30 nM

Q: And the IC50 [20]?
A: 180 nM

Q: What about the IC50 [21] of the same compound?
A: 40 nM

Q: And the IC50 [22]?
A: 10 nM

Q: What about the IC50 [23] of the same compound?
A: 130 nM

Q: And the IC50 [24]?
A: 190 nM

Q: What about the IC50 [25] of the same compound?
A: 90 nM

Q: What about the IC50 [26] of the same compound?
A: 180 nM

Q: What about the IC50 [27] of the same compound?
A: 80 nM

Q: And the IC50 [28]?
A: 110 nM

Q: What about the IC50 [29] of the same compound?
A: 70 nM

Q: And the IC50 [30]?
A: 50 nM

Q: What about the IC50 [31] of the same compound?
A: 40 nM

Q: And the IC50 [32]?
A: 20 nM

Q: What about the IC50 [33] of the same compound?
A: 60 nM

Q: What about the IC50 [34] of the same compound?
A: 70 nM
